Molecules are shown by their SMILES.

What all share (assay type): cell-based
One assay deals with Pyricularia oryzae. Kind of assay: microbe, parasite or virus in culture. The note with it: 168 h, read-out: % control compared to the untreated check (radial growth).
The subject of a further assay is Rhizoctonia solani. Kind of assay: Rhizoctonia solani (rice sheath blight/potato black scurf) in vitro test, radial growth on Potato Dextrose Agar. As to conditions: 168 h, 300 ppm, seven days, 25° C., read-out: % control compared to the untreated check (radial growth).
In another assay the test system is Botrytis cinerea. Nature of the assay: Botrytis cinerea (gray mold) in vitro test, radial growth on Potato Dextrose Agar. The note with it: 168 h, 300 ppm, seven days, 22° C., read-out: % (control) compared to the untreated check (radial growth).
In a further assay the test system is Alternaria solani. Nature of the assay: Alternaria solani (early blight of tomato/potato) in vitro test, radial growth on Potato Dextrose Agar. The note with it: 168 h, 300 ppm, seven days, 25° C., read-out: % control compared to the untreated check (radial growth).
Another assay relates to Colletotrichum capsici. Kind of assay: Colletotrichum capsici (anthracnose) in vitro test, radial growth on Potato Dextrose Agar. As to conditions: Colletotrichum truncatum, 168 h; 300 ppm; seven days, 25° C.; read-out: % control compared to the untreated check (radial growth).
The next assay relates to Septoria lycopersici. Kind of assay: Septoria lycopersici (leaf spot of tomato) in vitro test, radial growth on Potato Dextrose Agar. The note with it: 168 h, seven days, 25° C., read-out: % control compared to the untreated check (radial growth).
In another assay the test system is Fusarium culmorum. Kind of assay: Fusarium culmorum (foot rot of cereals) in vitro test, radial growth on Potato Dextrose Agar. The note with it: Fusarium culmorum, 168 h, read-out: % control compared to the untreated check (radial growth).

As for `Cc1cc(N=CN(C)C(C)C)c(C)cc1Cc1ccccc1Cl` [Compound 82, N′-(4-(2-chlorobenzyl)-2,5-dimethylphenyl)-N-isopropyl-N-methylformimidamide], the inhibition of growth at 300 ppm in the assay with Pyricularia oryzae is above 75%; in the assay on Rhizoctonia solani, above 80%; in the assay with Botrytis cinerea it was above 80%; in the assay with Alternaria solani, above 75%; in the assay with Colletotrichum capsici, above 80%; in the assay on Septoria lycopersici, above 70%. Besides, the inhibition of growth at 300 ppm with Fusarium culmorum was 75%.

Regarding `CCN(C)C=Nc1cc(C)c(Cc2ccccc2Cl)cc1C1CC1` [Compound 223, N′-(4-(2-chlorobenzyl)-2-cyclopropyl-5-methylphenyl)-N-ethyl-N-methylformimidamide], the inhibition of growth at 300 ppm with Pyricularia oryzae is above 75%; in the assay with Rhizoctonia solani, above 80%; in the assay with Botrytis cinerea, above 80%; with Alternaria solani, above 75%; with Colletotrichum capsici it was above 80%; in the assay with Septoria lycopersici, above 70%. For the same molecule, in the assay on Fusarium culmorum, the inhibition of growth at 300 ppm turned out to be 75%.

For the molecule `CCN(C)C=Nc1cc(F)c(Cc2ccccc2F)cc1C` [Compound 185, N-ethyl-N′-(5-fluoro-4-(2-fluorobenzyl)-2-methylphenyl)-N-methylformimidamide], the inhibition of growth at 300 ppm with Pyricularia oryzae is above 75%; in the assay with Rhizoctonia solani, above 80%; in the assay on Botrytis cinerea, above 80%; with Alternaria solani, above 75%; in the assay with Colletotrichum capsici, above 80%; with Septoria lycopersici, above 70%. The inhibition of growth at 300 ppm in the assay with Fusarium culmorum was found to be 75%.

Take `CCN(C)C=Nc1cc(C)c(Cc2ccc(C)c(F)c2)cc1Cl` [Compound 139, N′-(2-chloro-4-(3-fluoro-4-methylbenzyl)-5-methylphenyl)-N-ethyl-N-methylformimidamide]: the inhibition of growth at 300 ppm in the assay with Pyricularia oryzae was above 75%; in the assay with Rhizoctonia solani, above 80%; in the assay on Botrytis cinerea, above 80%; in the assay with Alternaria solani, above 75%; in the assay on Colletotrichum capsici it was above 80%; with Septoria lycopersici, above 70%. Further, in the assay on Fusarium culmorum, the inhibition of growth at 300 ppm came to 75%.

For `CCN(C)C=Nc1cc(C(F)(F)F)c(Cc2ccccc2Cl)cc1C1CC1` [Compound 262, N′-(4-(2-chlorobenzyl)-2-cyclopropyl-5-(trifluoromethyl)phenyl)-N-ethyl-N-methylformimidamide], the inhibition of growth at 300 ppm in the assay on Pyricularia oryzae is above 75%; in the assay on Rhizoctonia solani, above 80%; in the assay on Botrytis cinerea it was above 80%; in the assay on Alternaria solani, above 75%; in the assay with Colletotrichum capsici, above 80%; in the assay on Septoria lycopersici it was above 70%. Further, in the assay on Fusarium culmorum, the inhibition of growth at 300 ppm turned out to be 75%.

For `CCN(C)C=Nc1cc(C(F)(F)F)c(Cc2ccc(C)cc2)cc1F` [Compound 225, N-ethyl-N′-(2-fluoro-4-(4-methylbenzyl)-5-(trifluoromethyl)phenyl)-N-methylformimidamide], the inhibition of growth at 300 ppm in the assay on Pyricularia oryzae was above 75%; in the assay with Rhizoctonia solani it was above 80%; in the assay on Botrytis cinerea it was above 80%; in the assay on Alternaria solani, above 75%; in the assay on Colletotrichum capsici, above 80%; in the assay with Septoria lycopersici, above 70%. Moreover, the inhibition of growth at 300 ppm in the assay on Fusarium culmorum was found to be 75%.

With `CCN(C)C=Nc1cc(C)c(Cc2cc(C(F)(F)F)ccc2Cl)cc1C` [Compound 159, N′-(4-(2-chloro-5-(trifluoromethyl)benzyl)-2,5-dimethylphenyl)-N-ethyl-N-methylformimidamide], the inhibition of growth at 300 ppm is above 75% in the assay with Pyricularia oryzae; above 80% in the assay with Rhizoctonia solani; above 80% in the assay on Botrytis cinerea; above 75% with Alternaria solani; above 80% in the assay with Colletotrichum capsici; above 70% in the assay on Septoria lycopersici. Besides, the inhibition of growth at 300 ppm in the assay on Fusarium culmorum was determined as 75%.

`CCN(C)C=Nc1cc(C)c(Cc2cccc(OC)c2)cc1C` [Compound 45, N-ethyl-N′-(4-(3-methoxybenzyl)-2,5-dimethylphenyl)-N-methylformimidamide]: the inhibition of growth at 300 ppm is above 75% in the assay on Pyricularia oryzae; above 80% with Rhizoctonia solani; above 80% in the assay with Botrytis cinerea; above 75% with Alternaria solani; above 80% in the assay with Colletotrichum capsici; above 70% in the assay on Septoria lycopersici. In addition, the inhibition of growth at 300 ppm in the assay on Fusarium culmorum was found to be 75%.

Take `CCN(C)C=Nc1cc(C)c(Cc2ccc(C)cc2)cc1C1CC1` [Compound 222, N′-(2-cyclopropyl-5-methyl-4-(4-methylbenzyl)phenyl)-N-ethyl-N-methylformimidamide]: the inhibition of growth at 300 ppm in the assay with Pyricularia oryzae is above 75%; with Rhizoctonia solani, above 80%; with Botrytis cinerea, above 80%; with Alternaria solani, above 75%; in the assay with Colletotrichum capsici, above 80%; with Septoria lycopersici, above 70%. Besides, the inhibition of growth at 300 ppm in the assay with Fusarium culmorum came out at 75%.

Turning to `CCN(C)C=Nc1cc(C)c(Cc2cccc(C)c2)cc1C1CC1` [Compound 198, N′-(2-cyclopropyl-5-methyl-4-(3-methylbenzyl)phenyl)-N-ethyl-N-methylformimidamide], the inhibition of growth at 300 ppm was above 75% with Pyricularia oryzae; above 80% in the assay with Rhizoctonia solani; above 80% with Botrytis cinerea; above 75% in the assay on Alternaria solani; above 80% in the assay with Colletotrichum capsici; above 70% in the assay with Septoria lycopersici. Moreover, the inhibition of growth at 300 ppm with Fusarium culmorum is 75%.

Consider `CCN(C)C=Nc1cc(C)c(Cc2ccccc2Br)cc1C` [Compound 154, N′-(4-(2-bromobenzyl)-2,5-dimethylphenyl)-N-ethyl-N-methylformimidamide], for which the inhibition of growth at 300 ppm in the assay on Pyricularia oryzae is above 75%; in the assay with Rhizoctonia solani, above 80%; in the assay on Botrytis cinerea, above 80%; in the assay with Alternaria solani it was above 75%; in the assay with Colletotrichum capsici it was above 80%; with Septoria lycopersici, above 70%. In addition, in the assay on Fusarium culmorum, the inhibition of growth at 300 ppm worked out at 75%.

On to `CCN(C)C=Nc1cc(Cl)c(Cc2ccccc2C)cc1C` [Compound 257, N′-(5-chloro-2-methyl-4-(2-methylbenzyl)phenyl)-N-ethyl-N-methylformimidamide], for which the inhibition of growth at 300 ppm in the assay on Pyricularia oryzae was above 75%; in the assay with Rhizoctonia solani, above 80%; in the assay on Botrytis cinerea it was above 80%; in the assay on Alternaria solani, above 75%; in the assay with Colletotrichum capsici, above 80%; with Septoria lycopersici, above 70%. The inhibition of growth at 300 ppm in the assay on Fusarium culmorum stood at 75%.

For `CCN(C)C=Nc1cc(C)c(Cc2ccc(F)c(F)c2)cc1C` [Compound 146, N′-(4-(3,4-difluorobenzyl)-2,5-dimethylphenyl)-N-ethyl-N-methylformimidamide], the inhibition of growth at 300 ppm in the assay with Pyricularia oryzae was above 75%; in the assay on Rhizoctonia solani it was above 80%; with Botrytis cinerea, above 80%; with Alternaria solani, above 75%; in the assay with Colletotrichum capsici it was above 80%; in the assay on Septoria lycopersici, above 70%. Further, the inhibition of growth at 300 ppm in the assay with Fusarium culmorum was found to be 75%.

For `CCN(C)C=Nc1cc(C)c(Cc2cc(F)cc(OC)c2)cc1Cl` [Compound 169, N′-(2-chloro-4-(3-fluoro-5-methoxybenzyl)-5-methylphenyl)-N-ethyl-N-methylformimidamide], the inhibition of growth at 300 ppm with Pyricularia oryzae was above 75%; in the assay with Rhizoctonia solani it was above 80%; in the assay with Botrytis cinerea, above 80%; in the assay with Alternaria solani, above 75%; with Colletotrichum capsici it was above 80%; in the assay with Septoria lycopersici it was above 70%. In addition, the inhibition of growth at 300 ppm with Fusarium culmorum amounted to 75%.

Consider `Cc1cc(N=CNC(C)C)c(C)cc1Cc1ccccc1Cl` [Compound 67, N′-(4-(2-chlorobenzyl)-2,5-dimethylphenyl)-N-isopropylformimidamide], for which the inhibition of growth at 300 ppm was above 75% in the assay on Pyricularia oryzae; above 80% in the assay with Rhizoctonia solani; above 80% in the assay on Botrytis cinerea; above 75% in the assay with Alternaria solani; above 80% in the assay on Colletotrichum capsici; above 70% in the assay with Septoria lycopersici. Further, the inhibition of growth at 300 ppm in the assay on Fusarium culmorum amounted to 75%.

Take `CCN(C)C=Nc1cc(C)c(Cc2ccc(OC)cc2)cc1Cl` [Compound 69, N′-(2-chloro-4-(4-methoxybenzyl)-5-methylphenyl)-N-ethyl-N-methylformimidamide]: the inhibition of growth at 300 ppm is above 75% in the assay with Pyricularia oryzae; above 80% in the assay on Rhizoctonia solani; above 80% in the assay on Botrytis cinerea; above 75% in the assay with Alternaria solani; above 80% with Colletotrichum capsici; above 70% with Septoria lycopersici. In the assay with Fusarium culmorum, the inhibition of growth at 300 ppm is 75%.

For `CCN(C)C=Nc1cc(Cl)c(Cc2cccc(Cl)c2)cc1C` [Compound 258, N′-(5-chloro-4-(3-chlorobenzyl)-2-methylphenyl)-N-ethyl-N-methylformimidamide], the inhibition of growth at 300 ppm with Pyricularia oryzae is above 75%; in the assay with Rhizoctonia solani, above 80%; in the assay on Botrytis cinerea it was above 80%; in the assay with Alternaria solani it was above 75%; in the assay with Colletotrichum capsici it was above 80%; in the assay on Septoria lycopersici, above 70%. For the same molecule, in the assay on Fusarium culmorum, the inhibition of growth at 300 ppm was determined as 75%.

(Values after patent US11155517B2, “4-substituted phenylamine derivatives and their use to protect crops by fighting undesired phytopathogenic micoorganisms” (PI INDUSTRIES LTD., priority 2016, dated 2021).)
